Experimental data taken from the METLIN SMRT retention time set (Domingo-Almenara et al. 2019).

Test: gradient 5% acetonitrile 3 min, to 50% in 2 min, to 85% in 15 min, held 3 min, 100 µL/min
Conditions: column: Zorbax Extend-C18 2.1 x 50 mm; eluents: water / acetonitrile, 0.1% formic acid
In short: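 A Zorbax Extend-C18 column (2.1 × 50 mm, 1.8 μm) run at 100 μL/min with water and acetonitrile, both containing 0.1% formic acid, separated mixtures of ~100 pure standards. The HPLC was coupled to a quadrupole time-of-flight mass spectrometer operated in positive and negative ionization mode, with dead and dwell volumes of 40 μL and 900 μL. Each retention time was taken from a computationally picked adduct peak that was then manually inspected.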

Row | Structure (SMILES) | RP-LC retention time [s]
1 | CCCNC(=O)c1nc2cc(C)c(C)cc2n(C)c1=O | 747
2 | COc1ccc(Cl)cc1NC(=O)Cc1csc2nc(-c3ccccc3)cn12 | 902
3 | NC(=O)c1c(NC(=O)C2=COCCO2)sc2c1CCCCC2 | 987
4 | O=C(CSc1ccc(F)cc1)Nc1nnc(COc2ccccc2)o1 | 790
5 | CCc1nc(-c2cccc(-c3noc(CN4C(=O)COc5ccc(Cl)cc54)n3)c2)cs1 | 1240
6 | COc1ccc(OCc2nnc3sc(-c4cc(CC(C)C)[nH]n4)nn23)cc1 | 917
7 | CCc1cccc(C)c1NC(=O)Cn1nc2n(c1=O)CCCC2 | 717
8 | COc1cccc(Cn2nnc(C(=O)O)c2-c2cccc(OC)c2)c1 | 782
9 | COc1ccc(OC)c(CNC(=O)CCC2CCN(S(=O)(=O)c3ccccc3)CC2)c1 | 875
10 | CC(C)NC(=O)C1CCN(S(=O)(=O)c2cc(C(=O)N3CCCCCC3)cs2)CC1 | 767
11 | CCc1c(C(=O)O)nnn1Cc1ccccc1 | 701
12 | Cc1cc(C)n(Cc2nc(-c3ccc(NC(=O)Cc4ccccc4F)cc3)oc2C)n1 | 915
13 | O=C(Nc1nc2c(s1)CN(C(=O)Cn1c(=O)oc3ccccc31)CC2)C1CCCO1 (stereo not given) | 665
14 | CCN1CCCn2cc(S(=O)(=O)Nc3ccc(F)c(C)c3)cc2C1=O | 755
15 | Cc1cc(C)cc(NC(=O)NCc2ccnc(N3CCSCC3)c2)c1 | 660
16 | O=C(NCCc1ccccn1)C1CCCN(c2nnc3ccc(C(F)(F)F)cn23)C1 (stereo not given) | 583
17 | CCN(Cc1ccc(Cl)cc1)Cc1cc(=O)n2ccccc2n1 | 615
18 | CCCN1C(=O)CCc2cc(NS(=O)(=O)c3ccccc3C(=O)OC)ccc21 | 845
19 | CCC(=O)N1CCc2cc(N3CC(C(=O)Nc4cc(C)ccc4C)CC3=O)ccc21 (stereo not given) | 790

More lines, now with the values ahead:

Row | RP-LC retention time [s] | Structure (SMILES)
20 | 620 | CCc1ccc(-c2cc(C(=O)N3CCN(C)CC3)[nH]n2)cc1
21 | 1150 | COc1cccc(-c2nc(-c3ccc4nnn(C(C)C)c4c3)no2)c1
22 | 596 | CCCC1c2nccn2CCCN1C(=O)c1cc(C2CC2)[nH]n1 (stereo not given)
23 | 666 | CCOC(=O)C1CCCN(C(=O)CCC2CCCN(c3cc(NC4CC4)ncn3)C2)C1 (stereo not given)
24 | 1100 | Cc1oc(-c2ccccc2)nc1Cn1ccn2nc(-c3ccc(F)cc3)cc2c1=O
25 | 749 | Cn1c(=O)n(CC(=O)O)c(=O)c2c1nc1n2CCCN1c1ccc(Cl)cc1
26 | 1010 | CCc1nn(CC)c(=O)c2cc(S(=O)(=O)NCc3ccc(F)c(Cl)c3)cn12
27 | 965 | O=c1ccc(-c2ccccc2)nn1CCc1nc(-c2ccccc2Br)no1
28 | 774 | CCN1C(=O)C2(CCN(S(=O)(=O)CC)CC2)c2ccccc21
29 | 764 | Cn1c(=O)sc2cc(S(=O)(=O)N3CCC(C(=O)N4CCCCC4)CC3)ccc21
30 | 731 | CCCS(=O)(=O)N1CCc2ccc(NC(=O)c3cccn(C)c3=O)cc2C1
31 | 1020 | O=C(Nc1ccc(N2CCN(C3CCCCC3)C2=O)nc1)c1cc(F)cc(F)c1
32 | 708 | Cc1ccccc1-n1ncc2c(NCc3ccco3)ncnc21
33 | 1020 | Cc1noc(C)c1-c1ccc(S(=O)(=O)Nc2ccc(C(F)(F)F)cc2)cc1
34 | 701 | Cc1cc(F)ccc1NC(=O)C1CCCN1S(C)(=O)=O (stereo not given)
35 | 731 | O=C([C@H]1C[C@@H](F)CN1S(=O)(=O)c1ccc(F)c(Cl)c1)N1CCOCC1
36 | 605 | CCOC(=O)c1nc(NCC2CCN(Cc3cccc(F)c3)CC2)c2ccccc2n1
37 | 614 | c1cncc(-c2nc(-c3ccc4c(c3)nnn4CCN3CCCCC3)no2)c1
38 | 763 | CSc1ccc(CNC(=O)C2CCCN(c3nccc(C)n3)C2)cc1 (stereo not given)
39 | 757 | O=C(Nc1ccccc1)C1CCN(S(=O)(=O)c2cc(C(=O)N3CCOCC3)cs2)CC1
40 | 684 | Cc1cccn2c(Nc3ccccc3)c(-c3ccc(N4CCOCC4)cc3)nc12
41 | 674 | COc1ccc(-c2cc3c(=O)n(Cc4noc(CN5CCCCC5C)n4)ccn3n2)cc1 (stereo not given)
42 | 827 | CC(C)n1cnc(S(=O)(=O)N2CCC(C(=O)NC3CCCCCCC3)CC2)c1
43 | 664 | O=C(c1ccc(Cl)s1)N1CCC(n2cnnc2C2CC2)CC1
44 | 819 | O=C(CSCc1ccccc1)NCC1(c2cccs2)CCOCC1
45 | 733 | O=C(c1cccs1)N1CCN(c2ccc(=O)n(-c3ccccc3)n2)CC1
